Measurements taken from PubChem BioAssay (NCI).
“And” between values parts separate entries of the source, which are not always exact repeats. Identical values can stand only once.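 Test compounds were applied to cells in 96-well plates for 48 hours at 5 doses. At the GI50, growth is halved. TGI: concentration producing complete growth inhibition.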 Where a SMILES comes first, the peptide text is derived from it. [ ]: non-standard residue; d: D form. The star is where a group is joined. NMeF = CN[CH](Cc1ccccc1)C(=O)O; NMeV = CN[CH](C(=O)O)C(C)C; Boc = CC(C)(C)OC(=O)*

Columns and labels:
Assay in all cases: inhibition of tumour cell growth, NCI panel, 48 h
[1] = system: HL-60(TB) leukemia
[2] = system: UO-31 renal
[3] = system: A498 renal
[4] = system: NCI-H23 lung
[5] = system: NCI-H522 lung
[6] = system: OVCAR-3 ovarian
[7] = system: KM12 colon
[8] = system: SF-539 CNS
[9] = system: UACC-62 melanoma
[10] = system: NCI/ADR-RES ovarian

Structure (SMILES)	TGI [1] [µM]	TGI [2]	TGI [3]	TGI [4]	TGI [5] [µM]	TGI [6] [µM]	TGI [7]	TGI [8]	TGI [9]	GI50 [1] [µM]	GI50 [2]	GI50 [3] [µM]	GI50 [4] [µM]	GI50 [6] [µM]	GI50 [7] [µM]	GI50 [9] [µM]	GI50 [10] [µM]	TGI [10] [µM]	GI50 [5] [µM]	GI50 [8] [µM]
Cc1nc(N)sc1C(=O)/C=C\c1ccc2c(c1)OCO2	> 100	> 100 µM	> 100 µM	> 100 µM	> 100	> 100	> 100 µM	> 100 µM	> 100 µM											
COc1cc(/C=C/c2cc(/C=C/c3ccc(O)c(OC)c3)n(C(=O)Nc3ccc(F)c(Cl)c3)n2)ccc1O	0.88	1.82 µM	2.1 µM	1.46 µM		0.837	1.15 µM		1.99 µM	0.31	0.248 µM	0.783	0.147	0.263	0.31	0.452	0.126	3.09		
CCOc1ccccc1NC(=O)CC(C(=O)OC)C(=O)C(=O)OC (stereo not drawn)	> 100	> 100 µM	> 100 µM	> 100 µM	> 100	> 100	> 100 µM	> 100 µM	> 100 µM											
NCC1Nc2ccccc2[C@@H](O)C1O (stereo partly drawn)	> 100	> 100 µM		> 100 µM		> 100	> 100 µM	> 100 µM	> 100 µM									> 100		
CC(C)C(NC(=O)OC(C)(C)C)C(=O)N(C)C(Cc1ccccc1)C(=O)N(C)C(C(=O)O)C(C)C (stereo not drawn) (Boc-Val-[NMeF]-[NMeV]-OH; configuration not given here)	> 100	> 100 µM		> 100 µM	> 100	> 100	> 100 µM	> 100 µM	> 100 µM											
COc1cc2c(cc1OC)C(CC(=O)NN=C(C)C)NCC2 (stereo not drawn)	> 100	> 100 µM	> 100 µM	> 100 µM	> 100	> 100	> 100 µM	> 100 µM	> 100 µM											
Cn1c(=O)c(C(c2ccc([N+](=O)[O-])cc2)c2c(O)c3ccccc3n(C)c2=O)cc2ccccc21 (stereo not drawn)	> 100	> 100 µM		> 100 µM	> 100	> 100	> 100 µM	> 100 µM	42.3 µM											
Cc1cn(C2CC(O)C(CO)O2)c(=O)n2nnnc12 (stereo not drawn)	> 100	> 100 µM	> 100 µM	> 100 µM	> 100	> 100	> 100 µM	> 100 µM	> 100 µM											
Cc1cc(C(=O)Nc2ncc(Cc3cccc(C(F)(F)F)c3)s2)c2ccccc2n1	5.38	> 100 µM		> 100 µM	> 100	> 100	> 100 µM			2.21	1.5 µM		3.9	2.63	0.498		2.06	> 100	2.33	
Clc1ccc(C2=Nn3c(COc4ccccc4Cl)nnc3SC2)c(Cl)c1	75.4	> 100 µM		39.6 µM	80.3	29.2	34 µM		35.5 µM	19.4	31.2 µM		15.5	12.9	16.9	15.1	> 100	> 100	22.6	
NC(N)=N/N=C(\c1nc2ccc([N+](=O)[O-])cc2[nH]c1=O)C(O)c1ccc([N+](=O)[O-])cc1 (stereo not drawn)	> 100	> 100 µM		> 100 µM	89.6	> 100	> 100 µM	> 100 µM	> 100 µM											
COc1ccc(Cn2cc3c(c2-c2ccccc2)CC(C)(C)c2cnoc2-3)cc1	4.29	> 100 µM	7.72 µM	> 100 µM	1.9	3.28	> 100 µM	6.02 µM	> 100 µM	0.82	3.08 µM	1.4	2.29	0.662	0.783	0.958			0.314	2.18
COC1(OC)C2(Cl)C(Cl)=C(Cl)C1(Cl)C1C=CC=CC12 (stereo not drawn)	> 100	> 100 µM		> 100 µM	> 100	> 100	> 100 µM	> 100 µM	> 100 µM											
COc1ccccc1CCc1cc(OC)c(OC)c(OC)c1	39.3	61.3 µM	> 100 µM		> 100	> 100	> 100 µM	> 100 µM	> 100 µM											
Cc1cc(Cl)ccc1N=C1NC(=O)C(CC(=O)Nc2ccc([N+](=O)[O-])cc2[N+](=O)[O-])S1 (stereo not drawn)		42.6 µM	51.5 µM	51.8 µM		73.8	> 100 µM	59.1 µM	64.7 µM											
COc1ccc(C(=O)C(C(=O)CCC(=O)Nc2cccc(Cl)c2)c2ccc(OC)cc2)cc1 (stereo not drawn)	> 100	> 100 µM	> 100 µM	> 100 µM	> 100	> 100	> 100 µM	> 100 µM	> 100 µM											
Cc1cccc(NC(=O)/C(=N\NC(C)(C)C)C2NC(=S)NC2=O)c1C (stereo not drawn)	> 100	> 100 µM	> 100 µM			> 100	> 100 µM	> 100 µM	> 100 µM											
COC(=O)C1=C(C)N(NC(=O)OC(C)(C)C)C(=O)C1=P(c1ccccc1)(c1ccccc1)c1ccccc1	> 100	> 100 µM	> 100 µM	> 100 µM	> 100	> 100	> 100 µM	> 100 µM	> 100 µM											
CC(C)(C)c1ccc2c(c1)S(=O)(=O)Nc1ccccc1NS(=O)(=O)c1cc(C(C)(C)C)ccc1OCCOCCOCCO2	> 100	> 100 µM	> 100 µM	> 100 µM		> 100	> 100 µM	> 100 µM	> 100 µM											
Cn1c2c(c3ccccc31)CC1c3c(c4ccccc4n3C)CC21 (stereo not drawn)	> 100	> 100 µM		> 100 µM	> 100	> 100	> 100 µM	> 100 µM	> 100 µM									> 100		
CN1c2ccc(Cl)cc2C(=O)NC1c1ccc([N+](=O)[O-])s1 (stereo not drawn)	49.3	26.5 µM	32.8 µM			31.4	31.9 µM	37.5 µM	26.3 µM									35.3		

Structure (SMILES)	TGI [1] [µM]	TGI [2]	TGI [3]	TGI [4]	TGI [5] [µM]	TGI [6] [µM]	TGI [7]	TGI [8]	TGI [9]	GI50 [1] [µM]	GI50 [2]	GI50 [3] [µM]	GI50 [4] [µM]	GI50 [6] [µM]	GI50 [7] [µM]	GI50 [9] [µM]	GI50 [10] [µM]	TGI [10] [µM]	GI50 [5] [µM]	GI50 [8] [µM]
CC1(C)SCc2nc3ncccc3n21	> 100	> 100 µM	> 100 µM	> 100 µM	> 100	> 100	> 100 µM	> 100 µM	> 100 µM											
COC(=O)/C(=N\Nc1nnc(C)n1N)C(C#N)c1ccc(Cl)cc1 (stereo not drawn)		> 100 µM	> 100 µM	> 100 µM		> 100	> 100 µM	> 100 µM	> 100 µM											
CC1CC[C@]2(C(=O)O)CCC3(C)C(=CC(=O)C4[C@@]5(C)CCC(=O)C(C)(C)C5CC[C@]43C)[C@@H]2[C@H]1C (stereo partly drawn)	24.7	38.1 µM	> 100 µM	79.3 µM	71.3	44	56.1 µM	44.1 µM	30.6 µM											
O=C(Cc1ccccc1)NN1C(=O)C(Cl)C1c1cc(Br)ccc1O (stereo not drawn)	13.6	46.8 µM		53.3 µM	> 100	> 100	> 100 µM		30.7 µM											
Cc1cn(C2CC(N(O)Cc3ccccc3)C(CO[Si](C)(C)C(C)(C)C)O2)c(=O)[nH]c1=O (stereo not drawn)	> 100	> 100 µM and 24.9 µM	48.7 µM and 26.8 µM	66.3 µM and 31.3 µM	32.2	32	51.7 µM and 31 µM	33.2 µM and 29.5 µM	26 µM and 30 µM		32.6 µM and 12.3 µM									
Cc1cccc(N2CCN(C(=S)c3ccc4c(c3)OCO4)CC2)c1	19	> 100 µM	67.9 µM	> 100 µM		2.87	> 100 µM	> 100 µM	> 100 µM	0.659	14.4 µM	0.799	7.07	0.359	0.514	0.64	0.338	> 100		1.5
CCOC(=O)C1=C(C)N(NC(=O)Nc2ccccc2)C(=O)C1=P(c1ccccc1)(c1ccccc1)c1ccccc1	50.4	> 100 µM	> 100 µM	> 100 µM	63.8	> 100		53.3 µM	89.9 µM											
COc1cc2c3c(n(CCCNC(=O)OCC4c5ccccc5-c5ccccc54)c(=O)c2cc1OC)-c1cc2c(cc1/C3=C\CCNC(=O)OCC1c3ccccc3-c3ccccc31)OCO2	> 50	> 50 µM		9.54 µM	> 23.6	> 50	> 50 µM	> 50 µM	> 36 µM	18.1	> 50 µM		0.921	> 44.6	> 27.9	> 21.6	> 38	> 50	> 11	35.7
COc1cc(C(C)O)c[n+](CCc2c[nH]c3ccccc23)c1 (stereo not drawn)	> 100	> 100 µM	> 100 µM	> 100 µM	> 100	> 100	> 100 µM	> 100 µM	> 100 µM											
CC(=O)[O-].CCN(CC)c1ccc(C=NCCN=Cc2ccc(N(CC)CC)cc2[O-])c([O-])c1.[Mn+3]	38.3	> 100 µM	53.1 µM	37.6 µM	61.9	44.1	33.7 µM	37.4 µM	57.5 µM	17.6	> 100 µM	22.9	19.7	21	17.8	25.7			43.3	20.9
C1=CC2SSSC2C1 (stereo not drawn)	> 100	> 100 µM		> 100 µM	> 100	> 100	> 100 µM	> 100 µM	> 100 µM											
Clc1nc(Cl)c(Cl)c(-c2ccccc2)n1	> 100	34.7 µM		35 µM	3.2	5.38	18 µM	31.5 µM										> 100		
C[C@@H]1CC(=O)C2CCCC1C2=O (stereo partly drawn)	> 100	> 100 µM	> 100 µM		> 100	> 100	> 100 µM	> 100 µM	> 100 µM											
NCCCCN(CCCN)/[N+]([O-])=N\O	> 100	> 100 µM		> 100 µM	> 100	> 100	> 100 µM	> 100 µM	> 100 µM											
CC(C)C(Nc1c2ccccc2nc2ccccc12)C(=O)O (stereo not drawn)	> 100	> 100 µM		> 100 µM	> 100	> 100	> 100 µM	> 100 µM	> 100 µM											
CN1C(=O)c2cccc3cc([N+](=O)[O-])cc(c23)C1=O	> 10			> 10 µM	> 10	> 10	> 10 µM	> 10 µM	> 10 µM									> 10		
Nn1c(=O)n(Cc2ccccc2)n(-c2ccccc2)c1=O	> 100	> 100 µM	> 100 µM	> 100 µM	> 100	> 100	> 100 µM	> 100 µM	> 100 µM											
O=C1CCN2C(=O)CCN12	> 100	> 100 µM	> 100 µM	> 100 µM	> 100	> 100	> 100 µM		> 100 µM											
COc1cc(C=C2C(=O)NC(=O)NC2=O)cc(OC)c1OC	> 100	> 100 µM		> 100 µM	> 100	> 100	> 100 µM	> 100 µM	> 100 µM											
CC1(C)C(=O)N(CCCCCCN2C(=O)C(C)(C)c3ccccc32)c2ccccc21	19.7	92.6 µM	> 100 µM	> 100 µM		77.8	> 100 µM	> 100 µM	79.8 µM											
CCOC(=O)CC1(C(=O)OCC)c2[nH]c3ccccc3c2CCN1Cc1ccccc1 (stereo not drawn)	62.5	64.1 µM	35.9 µM	33 µM	28.1	27.4	40.1 µM	35.8 µM	32.2 µM											
